Key:
[1] = tested on: HaCaT (human immortal keratinocyte cell line); test: MTT cytotoxicity assay, HaCaT; type: cell-based; settings: HaCaT normal cells, 72 h
Description: The human primary (SW480), metastatic (SW620) colon cancer, metastatic prostate cancer (PC3) and human immortal keratinocyte (HaCaT) cell lines were purchased from the American Type Culture Collection (ATCC, Rockville, USA). The cells were cultured in medium according to protocols (MEM for SW480 and SW620, RPMI 1640 for PC3 and DMEM for HaCaT cells) supplemented with 10% fetal bovine serum (FBS), penicillin (100 U/mL) and streptomycin (100 μg/mL) and cultured in 37 °C/ 5% CO2 humidified incubator. The cells were cultured until appropriate confluence was achieved (80–90%). Next, they were harvested by treatment with 0.25% trypsin (Gibco Life Technologies, USA) and used for studies.
Cells without studied compounds in medium were used as a control.
The cell viability was assessed by determination of MTT salt (3-(4,5-dimethylthiazol-2-yl)-2,5-diphenyltetrazolium bromide) conversion by mitochondrial dehydrogenase. MTT assay was performed as previously described. Experiments were repeated three times. Cell viability was presented as a percentage of MTT reduction in the treated cells versus the control cells. Number of viable cells cultured without studied compounds was assumed to be 100%. Decreased relative MTT level means decreased cell viability. Thiourea complexes with the highest cytotoxic potential assessed by MTT determination (with the lowest IC50) were chosen for subsequent assessments of cytotoxicity mechanisms.

[2] = tested on: S. epidermidis ATCC 12228; test: MIC, twofold serial microdilution; type: cell-based, Staphylococcus epidermidis; settings: S. epidermidis ATCC 12228, 18 h, 35 °C
Description: (§1) The antimicrobial activity of the compounds was tested on Gram-positive bacteria (Staphylococcus aureus NCTC 4163, Staphylococcus aureus ATCC 25923, Staphylococcus aureus ATCC 6538, Staphylococcus aureus ATCC 29213, Staphylococcus epidermidis ATCC 12228, Staphylococcus epidermidis ATCC 35984), Gram-negative rods (Escherichia coli ATCC 10538, Escherichia coli ATCC 25922, Pseudomonas aeruginosa ATCC 15442, Pseudomonas aeruginosa ATCC 27863) and yeasts (Candida albicans ATCC 10231, Candida albicans ATCC 90028, Candida parapsilosis ATCC 22019). Hospital methicillin-resistant strains of Staphylococcus aureus and Staphylococcus epidermidis were obtained from the collection of the Department of Pharmaceutical Microbiology, Medical University of Warsaw, Poland.
(§2) Antifungal activities were assessed using Mueller–Hinton agar + 2% glucose and 0.5 µg/mL methylene blue dye medium. Sterile filter paper discs (9 mm diameter, Whatman Number 3 chromatography paper) were dripped with tested compound solutions (in dimethylsulfoxide, DMSO) to load 400 μg of a given compound per disc. Dry discs were placed on the surface of appropriate agar medium. The results (diameter of the growth inhibition zone) were read after 18 h of incubation at 35 °C. Minimal inhibitory concentration (MIC) was tested by the twofold serial microdilution method (in 96-well microtiter plates) using Mueller–Hinton broth medium (Beckton Dickinson) for bacteria or RPMI-1640 medium for Candida species, according to CLSI guidelines. The stock solution of tested agent was prepared in DMSO and diluted in sterile water. […] The final inoculum of all studied microorganisms was 10^5 CFU/ mL^−1 (colony forming units per ml). Minimal inhibitory concentrations (the lowest concentration of a tested agent that prevents visible growth of a microorganism) were read after 18 h (bacteria) or 24 h (yeasts) of incubation at 35 °C.

[3] = tested on: S. epidermidis ATCC 35984; test: MIC, twofold serial microdilution; type: cell-based, Staphylococcus epidermidis; settings: S. epidermidis ATCC 35984, 18 h, 35 °C
Description: as §1, §2

[4] = tested on: E. coli ATCC 25922; test: MIC, twofold serial microdilution; type: cell-based, Escherichia coli; settings: E. coli ATCC 25922, 18 h, 35 °C
Description: as §1, §2

[5] = tested on: E. coli NCTC 10538; test: MIC, twofold serial microdilution; type: cell-based, Escherichia coli; settings: E. coli NCTC 10538, 18 h, 35 °C
Description: as §1, §2

[6] = tested on: S. epidermidis 420; test: MIC, hospital MRSE strain; type: cell-based, Staphylococcus epidermidis; settings: hospital MRSE S. epidermidis 420
Description: as §1, §2

[7] = tested on: S. epidermidis 423; test: MIC, hospital MRSE strain; type: cell-based, Staphylococcus epidermidis; settings: hospital MRSE S. epidermidis 423
Description: as §1, §2

[8] = tested on: S. epidermidis 424; test: MIC, hospital MRSE strain; type: cell-based, Staphylococcus epidermidis; settings: hospital MRSE S. epidermidis 424
Description: as §1, §2

[9] = tested on: S. epidermidis 433; test: MIC, hospital MRSE strain; type: cell-based, Staphylococcus epidermidis; settings: hospital MRSE S. epidermidis 433
Description: as §1, §2

[10] = tested on: S. epidermidis 435; test: MIC, hospital MRSE strain; type: cell-based, Staphylococcus epidermidis; settings: hospital MRSE S. epidermidis 435
Description: as §1, §2

[11] = tested on: S. epidermidis 436; test: MIC, hospital MRSE strain; type: cell-based, Staphylococcus epidermidis; settings: hospital MRSE S. epidermidis 436
Description: as §1, §2

[12] = tested on: S. epidermidis 438; test: MIC, hospital MRSE strain; type: cell-based, Staphylococcus epidermidis; settings: hospital MRSE S. epidermidis 438
Description: as §1, §2

[13] = tested on: S. epidermidis 469; test: MIC, hospital MRSE strain; type: cell-based, Staphylococcus epidermidis; settings: hospital MRSE S. epidermidis 469
Description: as §1, §2

[14] = tested on: S. epidermidis 471; test: MIC, hospital MRSE strain; type: cell-based, Staphylococcus epidermidis; settings: hospital MRSE S. epidermidis 471
Description: as §1, §2

[15] = tested on: S. epidermidis 510; test: MIC, hospital MRSE strain; type: cell-based, Staphylococcus epidermidis; settings: hospital MRSE S. epidermidis 510
Description: as §1, §2

[16] = tested on: S. epidermidis 511; test: MIC, hospital MRSE strain; type: cell-based, Staphylococcus epidermidis; settings: hospital MRSE S. epidermidis 511
Description: as §1, §2

[17] = tested on: S. epidermidis 513; test: MIC, hospital MRSE strain; type: cell-based, Staphylococcus epidermidis; settings: hospital MRSE S. epidermidis 513
Description: as §1, §2

[18] = tested on: S. epidermidis 515; test: MIC, hospital MRSE strain; type: cell-based, Staphylococcus epidermidis; settings: hospital MRSE S. epidermidis 515
Description: as §1, §2

[19] = tested on: Bacillus subtilis H17 (rec+); test: Bacillus subtilis rec-assay, H17; type: cell-based; settings: B. subtilis H17; 256 µg per disc (NOQ 2 µg per disc)
Description: DNA-damaging activity of compounds was tested by rec-assay using two genetically modified Bacillus subtilis strains: M45 (rec^−) and H17 (rec^+). Tested compounds were dissolved in DMSO, and 10 µL of each solution was dripped onto sterile cotton discs (Rotilabo) to load 256 µg of a given compound per 9 mm disc. Discs were placed on the surface nutrient agar plates (Difco), inoculated with 100 µL of bacterial overnight culture and incubated […] at 35 °C. After incubation, the growth inhibition zones were measured. […] Results of the genotoxicity test were estimated after 18 h of incubation at 35 °C by comparing the diameter of the inhibition zone on the B. subtilis M45 (rec^−) strain with that on the B. subtilis H17 (rec^+) strain.

| SMILES | IC50 [1] [µM] | MIC [2] [µg/mL] | MIC [3] [µg/mL] | MIC [4] [µg/mL] | MIC [5] [µg/mL] | MIC [6] [µg/mL] | MIC [7] [µg/mL] | MIC [8] [µg/mL] | MIC [9] [µg/mL] | MIC [10] [µg/mL] | MIC [11] [µg/mL] | MIC [12] [µg/mL] | MIC [13] [µg/mL] | MIC [14] [µg/mL] | MIC [15] [µg/mL] | MIC [16] [µg/mL] | MIC [17] [µg/mL] | MIC [18] [µg/mL] | inhibition zone diameter [19] [mm] |
| --- | --- | --- | --- | --- | --- | --- | --- | --- | --- | --- | --- | --- | --- | --- | --- | --- | --- | --- | --- |
| O=[N+]([O-])c1cc([N+]2=C(Nc3ccccc3F)[S][Cu-2]23[S]C(Nc2ccccc2F)=[N+]3c2ccc(Cl)c([N+](=O)[O-])c2)ccc1Cl [Compound 7, Copper (II) complex with 1-(2-fluorophenyl)-3-(4-chloro-3-nitrophenyl)thiourea] | 138 ± 4.4 | 32 | 32 | 256 | 128 | 8 | 8 | 8 | 8 | 8 | 8 | 8 | 8 | 8 | 8 | 8 | 8 | 8 | 15 |
| O=[N+]([O-])c1cc([N+]2=C(Nc3ccc(I)cc3)[S][Cu-2]23[S]C(Nc2ccc(I)cc2)=[N+]3c2ccc(Cl)c([N+](=O)[O-])c2)ccc1Cl [Compound 8, Copper (II) complex with 1-(4-iodophenyl)-3-(4-chloro-3-nitrophenyl)thiourea] | 103 ± 3.4 | 8 | 4 | 128 | 128 | 8 | 8 | 8 | 4 | 8 | 8 | 8 | 8 | 8 | 8 | 8 | 8 | 8 | 14 |
